# Measured values reported in publication PMC7570620, “Synthesis and Evaluation of the Antitumor Activity of Novel 1-(4-Substituted phenyl)-2-ethyl Imidazole Apoptosis Inducers In Vitro” (Molecules, 2020).
# Assays:
# [1] = test system: lung and liver cancer cells; assay: Preliminary in vitro antitumor activity of lead compounds I and II; format: cell-based; details: preliminary work of this paper; Figure 2
# From the text: To identify new apoptosis-inducing candidates, we attempted to modify the structure of imidazole and its analogs. Imidazole and the related azole moiety are significant pharmacophores in various clinical drugs including antitumor agents. […] The antitumor potency of Tanshinone-IIA has been enhanced by the introduction of an imidazole moiety (Figure 1, TA12) in order to block cancer cell invasion and metastasis in vivo [16]. […] Previously, we reported a series of imidazole-fused quinoline compound I and its open-chain analogue compound II, 2-ethyl-1-phenyl-1H-imidazole (Figure 2). […] We speculated that its flexible structure caused this difference in antitumor activity. However, both their antitumor activities were not strong enough as a potent antitumor agent. So, using compound II as a lead, we designed and synthesized several structurally modified derivatives. The effects of LogP and hydrogen bonds on bioavailability were considered, and several aliphatic and aromatic amines were selected and linked to the 1-phenyl imidazole scaffold using a succinyl group as a cross-linker. This approach yielded several novel imidazole derivatives with cLogP values ranging from 1.99 to 4.34.
# Figure 2 Title compounds design. Yellow: pharmacophore and Blue: aliphatic/aromatic amine. TEXT PRINTED IN THE PICTURE: I: 300 uM< IC50 < 500 uM | II: 100 uM < IC50 < 300 uM
# HeLa = assay: MTT cell viability assay, HeLa; format: cell-based; details: Homo sapiens, 24 h incubation, mean ± SD, n = 4
# Protocol: (§1) The synthesized compounds were subjected to a cytotoxicity assay using the MTT method, as described previously. IC50 is defined as the drug concentration causing a 50% reduction in cell numbers compared to the untreated control. For screening, we evaluated the effects of the compounds on the growth of three cancer cell lines (A549, SGC-7901, and HeLa). In addition, their toxicities were tested using one normal cell line (L-02). The results are the averages of four separate measurements. MTX and 5-FU served as positive controls.
# (§2) The three cancer cell lines namely the human lung cancer cell line (A549), human cervical cancer cell line (HeLa), human gastric carcinoma cell line (SGC-7901), and normal liver cell line (L-02) were acquired from the American Type Culture Collection (Manassas, VA, USA). A549 and SGC-7901 cells were routinely cultured in RPMI-1640. In addition, HeLa and L-02 cells were routinely cultured in DMEM. Media was supplemented with 10% fetal bovine serum (FBS). Cells were maintained at subconfluency at 37 °C in humidified air containing 5% CO2. The cells were monitored daily and maintained at 80% cell density. All compounds tested were dissolved in DMSO and then diluted by the culture medium before the treatment of cultured cells.
# (§3) Cytotoxicity of the tested samples was measured against each cell line using the 3-(4,5-dimethylthiazol-2-yl)-2,5-diphenyltetrazolium bromide (MTT) cell viability assay (Maher et al., 2019). Cancer cells (A549, SGC-7901, and HeLa) and L-02 normal cells were harvested during the logarithmic growth phase. All cells were seeded in 96-well plates at 10^4 cells/well and were treated with 5-fluorouracil (5-FU), methotrexate (MTX), and the tested samples for 24 h at final concentrations of […]. Next, 20 µL of freshly prepared MTT (Solarbio) solution (5 mg/mL of MTT in PBS) was added to each well, and the cells were cultured for 4 h at 37 °C. The supernatants were removed and resolved with 100 µL of DMSO, and the cells were shocked for 10 min at 37 °C. The optical density of the samples was measured at 490 nm using a microplate luminometer. Cell viability was expressed as the percentage change in absorbance compared to the control values.
# L-02 = assay: MTT cytotoxicity in normal cell line L-02; format: cell-based; details: for IC50: Homo sapiens, L02, normal cell line L-02, MTT; for Selectivity Index A549: IC50 in normal cells (L-02)/IC50 in tumor cells (A549); for Selectivity Index HeLa: IC50 in normal cells (L-02)/IC50 in tumor cells (HeLa); for Selectivity Index SGC-7901: IC50 in normal cells (L-02)/IC50 in tumor cells (SGC-7901)
# Protocol: as §1
# The lack of selectivity between normal and cancer cells is one of the primary limitations of antitumor drugs. We evaluated the cytotoxicity of compounds 4c, 4e–4i, 4l, 4m, and 4q in the normal cell line L-02 to determine the selectivity index (defined as the ratio of cytotoxicity in L-02 cells compared to that in cancer cells). […] Compound 4q yielded satisfactory SI values in HeLa and SGC-7901 cells but an unsatisfactory SI value in A549 cells. […] Compound 4f was selected for the subsequent biological studies.
# as §2, §3
# A549 = assay: MTT cell viability assay, A549; format: cell-based; details: Homo sapiens, 24 h incubation, mean ± SD, n = 4
# Protocol: as §1, §2, §3
# HeLa cells [2] = assay: Hoechst/PI double staining apoptosis analysis; format: cell-based, human; details: 24 h, 4f 3.24 µM (legend: 4 µM), 5-FU 18 µM
# Protocol: Apoptosis and necrosis were analyzed by Hoechst/propidium iodide (CA1120, Solarbio, Beijing, China) double staining. HeLa cells were seeded in six-well plates (10^4 cells/well) and treated with IC50 concentrations of 5-FU or one of the tested derivatives for 0, 3, 6, 12, and 24 h. Next, the cells were collected and washed once in phosphate-buffered saline (PBS). The cells were then resuspended in 195 µL of binding buffer, and dual staining was performed with 3 µL of Hoechst and 3 µL of PI. Next, the cells were incubated for 15 min at room temperature in the dark. Apoptotic cells were analyzed using the EVOS FL Auto Cell Imaging System (Thermo Fisher Scientific, Shanghai, China).
# (A) HeLa cells were treated with 4 µM of 4f or 18 µM of 5-FU for 0, 3, 6, 12, or 24 h and were stained using the Hoechst/PI solution. Morphology and fluorescence intensity were examined under a fluorescence microscope (magnification: ×200). (B) Quantification of the percentages of apoptotic cells. Error bars indicate the mean ± SD of three independent experiments (* p < 0.05, ** p < 0.01, and *** p < 0.001 indicate significant differences).
# HeLa cells [3] = assay: Western blot of apoptotic proteins; format: cell-based, human
# Protocol: The results of the Western blot analysis were expressed as the relative ratio of the specific compound band compared with the internal reference.
# For performing Western blot analysis, the cells were washed with PBS and lysis buffer (P0013B, Beyotime). After incubation on ice for 30 min, the homogenate was centrifuged at 12,000g for 15 min at 4 °C, and the supernatant was used for protein analysis. Protein concentration was determined using the BCA protein assay (P0012S, Beyotime, Beijing, China). Sodium dodecyl sulfate-polyacrylamide gel electrophoresis was performed using the Bio-Rad Mini-Protean Tetra System (Bio-Rad, Hercules, CA, US). The proteins on the gel were then transferred onto polyvinylidene fluoride membranes (PVDF, Millipore, Beijing, China) for 2 h at 200 mA and blocked for 2 h with 5% skim milk at room temperature to prevent nonspecific binding. The blots were probed with the indicated primary antibodies followed by horseradish peroxidase (HRP)-conjugated goat anti-rabbit or anti-mouse IgG (Beyotime). Rabbit anti-Bcl-2 and mouse anti-actin antibodies were purchased from Beyotime. Rabbit anti-Bax, anti-Caspass-3, and anti-PARP monoclonal antibodies were purchased from Cell Signaling Technology (Danvers, MA, USA).
# Figure 4 Apoptotic effects of 4f on HeLa cells. (A) The effect of compound 4f on the expression levels of Bax, Bcl-2, Caspase 3, and cle-PARP in HeLa cells was analyzed using Western blotting. (B) Densitometric quantification. * p < 0.05, ** p < 0.01, and *** p < 0.001 relative to the control group (0 h). Bcl-2, B-cell lymphoma 2; Bax, […]; cle-PARP, cleaved poly ADP-ribose polymerase.
# SGC-7901 = assay: MTT cell viability assay, SGC-7901; format: cell-based; details: Homo sapiens, 24 h incubation, mean ± SD, n = 4
# Protocol: as §1, §2, §3
IC50 [1] [µM],IC50 (HeLa) [µM],IC50 (A549) [µM],IC50 (SGC-7901) [µM],SMILES,IC50 (L-02) [µM],Selectivity Index A549 (L-02),Selectivity Index HeLa (L-02),Selectivity Index SGC-7901 (L-02),"Selectivity index, tolerance of normal L-02 cells versus tumor cells (L-02; range over the three tumor cell lines)",apoptosis rate (HeLa cells [2]) [%],"expression of Bcl-2 (HeLa cells [3]; 3.24 µM, time-dependent 3–24 h)","expression of the Bax protein (HeLa cells [3]; 3.24 µM, time-dependent 3–24 h)","Caspase-3 expression increase (HeLa cells [3]; 24 h after treatment, 4f 3.24 µM) [%]"
100 to 300,–,–,–,"CCc1nccn1-c1ccccc1 [II, 2-ethyl-1-phenyl-1H-imidazole]",–,–,–,–,–,–,–,–,–
–,3.24 ± 0.23,6.6 ± 0.36,5.37 ± 0.85,"CCc1nccn1-c1ccc(NC(=O)CCC(=O)Nc2ccc(Br)cc2)cc1 [Compound 4f, 1-(4-(3-(4-Br-Phenylcarbamoyl)propionamide)phenyl)-2-ethyl Imidazol]",152 ± 10.8,23.03,46.92,28.31,23–46 fold,68.2,decreased,significantly increased,134.3
–,18.3 ± 1.52,22.6 ± 2.59,16.4 ± 0.88,"O=c1[nH]cc(F)c(=O)[nH]1 [Compound 5-FU, 5-fluorouracil, reference compound]",74.7 ± 7.85,3.30,4.08,4.57,–,39.6,–,–,–
